Test results taken from patent US20190002436A1, “RESPIRATORY SYNCYTIAL VIRUS INHIBITORS” (MEDIVIR AB, priority 2015, published 2019).
Read-outs that look alike come from different tables or passages of the source.

Test system: RSV (Long)
Assay: RSV cytopathic effect (CPE)-based viral replication assay
Format: cell-based, respiratory syncytial virus (RSV)
Conditions: HEp-2 cells infected with RSV Long at MOI 0.015, 3 days at 37° C., cell viability by CellTiter-Glo luminescence, read-out: EC50 (nm)
Method: Example A: RSV Cytopathic Effect
Compounds of the invention are initially tested in a cytopathic effect (CPE)-based viral replication assay using immortalized cells and a laboratory strain of RSV (Long). This assay evaluates the ability of a compound to inhibit viral replication.
Assay plates are prepared by seeding 2,500 HEp-2 cells (ATCC) per well of a 384-well black clear-bottom plate (Greiner Bio-One) in 20 μL of assay media (defined as DMEM supplemented with 2% heat-inactivated fetal bovine serum and 1% Penicillin/Streptomycin). Assay plates are incubated overnight at 37° C. in an incubator containing 5% CO2. The following day, a 10-point serial dilution of test compound is prepared in DMSO. Compounds are subsequently diluted with assay media and 20 μL of diluted compound (containing 1.5% DMSO) is transferred to an assay plate for evaluation of antiviral activity.
For the CPE assay, cells are infected at a Multiplicity of Infection (MOI) of 0.015 using 20 μL of RSV Long (ATCC) diluted in assay media. The DMSO concentration is constant throughout the assay plate, including the negative and positive controls. The assay plate is incubated for 3 days at 37° C. in an incubator containing 5% CO2. Cell viability is evaluated with the addition of 10 μL of CellTiter-Glo (ProMega). Luminescence is measured using an EnVision plate reader (Perkin Elmer). EC50 values are calculated using the raw data from the CPE assays.

[1] = human respiratory syncytial virus, HEp-2, 72 h

SMILES	EC50 [1]	EC50
COC(=O)N1CCC(n2c(=O)n(Cc3ncc4ccccc4c3CCCCO)c3cc(F)c(F)cc32)CC1 [Example 14c, methyl 4-(5,6-difluoro-3-((4-(4-hydroxybutyl)isoquinolin-3-yl)methyl)-2-oxo-2,3-dihydro-1H-benzo[d]imidazol-1-yl)piperidine-1-carboxylate]	75 nM	
CC(C)(C)NC(=O)N1CC2(C1)C(=O)N(Cc1ncc3ccccc3c1CCCCO)c1ccccc12 [Example 56, N-(tert-butyl)-1′-((4-(4-hydroxybutyl)isoquinolin-3-yl)methyl)-2′-oxospiro[azetidine-3,3′-indoline]-1-carboxamide]	1.3 nM	
COC(=O)N1CCC2(CC1)C(=O)N(Cc1ncc3ccccc3c1CCCS(C)(=O)=O)c1cnccc12 [Example 11c, Methyl 1′-((4-(3-(methylsulfonyl)propyl)isoquinolin-3-yl)methyl)-2′-oxo-1′,2′-dihydrospiro[piperidine-4,3′-pyrrolo[2,3-c]pyridine]-1-carboxylate]	88 nM	
Cc1noc(C)c1-c1c(CN2C(=O)C3(CCN(C(=O)C4(N)CC4)CC3)c3ccncc32)ncc2ccccc12 [Example 130c, 1-(1-Aminocyclopropanecarbonyl)-1′-((4-(3,5-dimethylisoxazol-4-yl)isoquinolin-3-yl)methyl)spiro[piperidine-4,3′-pyrrolo[2,3-c]pyridin]-2′(1′H)-one]	1000 nM	
COC(=O)N1CCC2(CC1)C(=O)N(Cc1ncc3ccccc3c1CCCCO)c1cnccc12 [Example 21b, Methyl 1′-((4-(4-hydroxybutyl)isoquinolin-3-yl)methyl)-2′-oxo-1′,2′-dihydrospiro[piperidine-4,3′-pyrrolo[2,3-c]pyridine]-1-carboxylate]	6.4 nM	
CS(=O)(=O)N1CCC(n2c(=O)n(Cc3ncc4ccccc4c3CCCCO)c3cnccc32)CC1 [Example 18c, 3-((4-(4-hydroxybutyl)isoquinolin-3-yl)methyl)-1-(1-(methylsulfonyl)piperidin-4-yl)-1H-imidazo[4,5-c]pyridin-2(3H)-one]	3.4 nM	
COC(=O)N1CCC(n2c(=O)n(Cc3ncc4cc(F)ccc4c3CCCCO)c3cnccc32)CC1 [Example 7b, Methyl 4-(3-((7-fluoro-4-(4-hydroxybutyl)isoquinolin-3-yl)methyl)-2-oxo-2,3-dihydro-1H-imidazo[4,5-c]pyridin-1-yl)piperidine-1-carboxylate]	11 nM	
CS(=O)(=O)N1CCC2(CC1)C(=O)N(Cc1ncc3cc(F)ccc3c1-c1cccnc1)c1cnccc12 [Example 2034]	2.6 nM	
CS(=O)(=O)N1CCC2(CC1)C(=O)N(Cc1ncc3cc(F)ccc3c1-c1cncs1)c1cnccc12 [Example 2010]	1.5 nM	
COC(=O)N1CC2(C1)C(=O)N(Cc1ncc3ccccc3c1CCCCO)c1ccccc12 [Example 28b, Methyl 1′-((4-(4-hydroxybutyl)isoquinolin-3-yl)methyl)-2′-oxospiro[azetidine-3,3′-indoline]-1-carboxylate]	6.8 nM	
COC(=O)N1CCC(n2c(=O)n(Cc3ncc4cc(C#N)ccc4c3CCCCO)c3cnccc32)CC1 [Example 23b, methyl 4-(3-((7-cyano-4-(4-hydroxybutyl)isoquinolin-3-yl)methyl)-2-oxo-2,3-dihydro-1H-imidazo[4,5-c]pyridin-1-yl)piperidine-1-carboxylate]	41 nM	
O=C1N(Cc2ncc3ccccc3c2-c2cccnc2)c2cnccc2C12CCN(S(=O)(=O)CC(F)(F)F)CC2 [Example 139, 1′-((4-(pyridin-3-yl)isoquinolin-3-yl)methyl)-1-((2,2,2-trifluoroethyl)sulfonyl)spiro[piperidine-4,3′-pyrrolo[2,3-c]pyridin]-2′(1′H)-one]	7.2 nM	
NC1(C(=O)N2CCC3(CC2)C(=O)N(Cc2ncc4ccccc4c2-c2cnc(C(F)(F)F)s2)c2cnccc23)CC1 [Example 2028]	13 nM	
CC(C)(C)c1ccc(-c2c(Cn3c(=O)n(C4CC4)c4ccncc43)ncc3ccccc23)cc1 [Example 51d, 3-((4-(4-(tert-butyl)phenyl)isoquinolin-3-yl)methyl)-1-cyclopropyl-1H-imidazo[4,5-c]pyridin-2(3H)-one]	> 1 nM	
COC(=O)N1CCC(n2c(=O)n(Cc3ncc4cc(CN)ccc4c3CCCCO)c3cnccc32)CC1 [Example 24, Methyl 4-(3-((7-(aminomethyl)-4-(4-hydroxybutyl)isoquinolin-3-yl)methyl)-2-oxo-2,3-dihydro-1H-imidazo[4,5-c]pyridin-1-yl)piperidine-1-carboxylate]	2.4 nM	
O=c1n(Cc2ncc3c(F)cccc3c2CCCCO)c2cnccc2n1C1CC1 [Example 29, 1-Cyclopropyl-3-((8-fluoro-4-(4-hydroxybutyl)isoquinolin-3-yl)methyl)-1H-imidazo[4,5-c]pyridin-2(3H)-one]	160 nM	
CS(=O)(=O)N1CCC2(CC1)C(=O)N(Cc1ncc3ccccc3c1C1CNC(=O)C1)c1cnccc12 (centres unmarked) [Example 2041]		5.8 nM
O=c1n(Cc2ncc3ccccc3c2CCCCO)c2ccccc2n1CC(F)(F)F [Example 5c, 1-((4-(4-hydroxybutyl)isoquinolin-3-yl)methyl)-3-(2,2,2-trifluoroethyl)-1H-benzo[d]imidazol-2(3H)-one]	19 nM	
CS(=O)(=O)N1CCC2(CC1)C(=O)N(Cc1ncc3ccccc3c1-c1cncs1)c1cnccc12 [Example 98c]	1.9 nM	

Continued, values first:

EC50 [1]	EC50	SMILES
5.6 nM		CS(=O)(=O)N1CC2(C1)C(=O)N(Cc1ncc3ccccc3c1-c1cc(F)cc(F)c1)c1ccccc12 [Example 72]
0.9 nM		CS(=O)(=O)N1CC2(C1)C(=O)N(Cc1ncc3ccccc3c1-c1ccc(F)nc1)c1ccccc12 [Example 78]
25 nM		N#Cc1ccc(-c2c(CN3C(=O)C4(CN(C(=O)C5(N)CC5)C4)c4ccccc43)ncc3ccccc23)cn1 [Example 60c, 5-(3-((1-(1-Aminocyclopropanecarbonyl)-2′-oxospiro[azetidine-3,3′-indolin]-1′-yl)methyl)isoquinolin-4-yl)picolinonitrile]
2.8 nM		CN(C)C(=O)c1ccc(-c2c(CN3C(=O)C4(CCN(C(=O)C5(N(C)C)CC5)CC4)c4ccncc43)ncc3ccccc23)cn1 [Example 119b, 5-(3-((1-(1-(dimethylamino)cyclopropanecarbonyl)-2′-oxospiro[piperidine-4,3′-pyrrolo[2,3-c]pyridin]-1′(2′H)-yl)methyl)isoquinolin-4-yl)-N,N-dimethylpicolinamide]
21 nM		NC(=O)c1ccc(-c2c(CN3C(=O)C4(CCN(C(=O)[C@@H]5CC(F)(F)CN5)CC4)c4ccncc43)ncc3ccccc23)cn1 [Example 2011]
2.4 nM		CN(C)C(=O)c1ccc(-c2c(CN3C(=O)C4(CN(C(=O)C5(N)CC5)C4)c4ccccc43)ncc3ccccc23)cn1 [Example 121b, 5-(3-((1-(1-Aminocyclopropanecarbonyl)-2′-oxospiro[azetidine-3,3′-indolin]-1′-yl)methyl)isoquinolin-4-yl)-N,N-dimethylpicolinamide]
2.8 nM		CC(=O)N1CCC2(CC1)C(=O)N(Cc1ncc3ccccc3c1-c1cccnc1)c1cnccc12 [Example 146b, 1-Acetyl-1′-((4-(pyridin-3-yl)isoquinolin-3-yl)methyl)spiro[piperidine-4,3′-pyrrolo[2,3-c]pyridin]-2′(1′H)-one]
23 nM		NC1(C(=O)N2CCC3(CC2)C(=O)N(Cc2ncc4ccccc4c2-c2ccc(OC(F)(F)F)cc2)c2cnccc23)CC1 [Example 2036]
4.8 nM		COC(=O)N1CC2(C1)C(=O)N(Cc1ncc3ccccc3c1-c1ccc(NS(C)(=O)=O)nc1)c1cnccc12 [Example 167d, methyl 1′-((4-(6-(methylsulfonamido)pyridin-3-yl)isoquinolin-3-yl)methyl)-2′-oxo-1′,2′-dihydrospiro[azetidine-3,3′-pyrrolo[2,3-c]pyridine]-1-carboxylate]
	4.6 nM	O=C1N(Cc2ncc3ccccc3c2-c2ccc(F)nc2)c2ccccc2C12CC(NCCF)C2 (single isomer, unassigned) [Example 87-2, 3-((2-fluoroethyl)amino)-1′-((4-(6-fluoropyridin-3-yl)isoquinolin-3-yl)methyl)spiro[cyclobutane-1,3′-indolin]-2′-one]
4.3 nM		NC1(C(=O)N2CCC3(CC2)C(=O)N(Cc2ncc4ccccc4c2-c2ccc(C(=O)O)nc2)c2cnccc23)CC1 [Example 50b, 5-(3-((1-(1-aminocyclopropanecarbonyl)-2′-oxospiro[piperidine-4,3′-pyrrolo[2,3-c]pyridin]-1′(2′H)-yl)methyl)isoquinolin-4-yl)picolinic acid]
0.4 nM		COC(=O)N1CC2(C1)C(=O)N(Cc1ncc3ccccc3c1-c1cncs1)c1ccccc12 [Example 100, Methyl 2′-oxo-1′-((4-(thiazol-5-yl)isoquinolin-3-yl)methyl)spiro[azetidine-3,3′-indoline]-1-carboxylate]
1.5 nM		CNC1(C(=O)N2CC3(C2)C(=O)N(Cc2ncc4ccccc4c2-c2ccc(C#N)nc2)c2ccccc23)CC1 [Example 63, 5-(3-((1-(1-(Methylamino)cyclopropanecarbonyl)-2′-oxospiro[azetidine-3,3′-indolin]-1′-yl)methyl)isoquinolin-4-yl)picolinonitrile]
